Measured values as given in paper PMC12077799, “Fragment-based drug discovery for transthyretin kinetic stabilisers using a novel capillary zone electrophoresis method” (PLOS One, 2025).
Where two headings read alike, the source gives them in different places.

Tests used:
[1] = target: T1, Human transthyretin (TTR) thyroxine binding sites (Homo sapiens, UniProt P02766); assay: TTR CZE Free Probe Peak Height Restoration (FPPHR) assay, 8-ANS displacement
T1 construct: purchased SCIPAC (Sittingbourne, Kent, UK) P171-1
Description: CZE assays development and fragment screening were performed on a Beckman P/ACE MDQ capillary electrophoresis system (Beckman Coulter Inc., Brea, CA) operated by 32 Karat™ software. All capillaries (Polymicro Technologies, Phoenix, AZ) used were internally coated with polyvinyl alcohol and of around 30 cm in length, 75 microns in internal diameter. Capillary temperature was maintained at 20 °C by recirculating fluorinated fluid coolant during electrophoresis. Sample trays and buffer trays temperature were maintained at 4°C and ambient respectively. For every electrophoretic run, the capillary was pressure rinsed and prefilled with electrophoresis buffer also known as background electrolyte (termed as Running Buffer hereafter) before injection. After each electrophoretic run, the capillary was rinsed with Running Buffer and H2O by pressure (20 psi for 1 minute). Three Running Buffers (RB), A: 20 mM Tris pH 7.5, 1 mM KCl, 1.62 mM NaCl; B: 20 mM HEPES pH 7.0, 2 mM CaCl2 and C: 20 mM HEPES pH 7.0, 2 mM CaCl2, 1% DMSO were used. All CE traces were analysed by 32Karat™ Software with a built-in automatic peak integration algorithm.
Control 1 Inject Buffer (IB) containing 30 μM 8-ANS was prepared by mixing 1 μL of 3 mM 8-ANS DMSO stock with 99 μL of Running Buffer B in a 0.2 mL PCR tube. Control 2 Inject Buffer was prepared by mixing 1μL of 3 mM 8-ANS DMSO stock with 20 μL of 100 μM tetrameric TTR stock in Running Buffer B and 79 μL of Running Buffer B. The final concentrations (f/c) were 8-ANS 30 μM, TTR 20 μM and 1% DMSO v/v.
The maximum Free Probe Peak Height (Control 1 Peak Height) was determined by Outlet Injection (see Fig 1) of Control 1 with an injection pressure of 0.5 psi for 5 seconds (equivalent to ≈ 20–30 nL). An identical injection of Control 2 provides the minimum Free Probe Peak Height (Control 2 Peak Height) enabling calculation of % of bound and unbound, i.e., free 8-ANS. To determine the 8-ANS peak height in Control 1 and Control 2, the capillary was prefilled with Buffer C and electrophoresis carried out at 10 kV (Normal Polarity, Fig 1) with UV monitoring at 230 nm. For displacement analysis, ligand DMSO stock was diluted in Buffer B and used to fill the capillary as the Running Buffer. Electrophoresis commenced after injection of Control 2, thus the injected 8-ANS-TTR complex migrates inside a capillary filled with the test ligand. The observed 8-ANS peak height is defined as Sample Peak Height and the displaced 8-ANS can be calculated as:
\% of Free Probe Peak Height Restoration= Sample Peak Height−Control 2 Peak Height/Control 1 Peak Height−Control 2 Peak Height

[2] = target: TTR thyroxine binding sites; details: cited from earlier work
[3] = target: T1, Human transthyretin (TTR) thyroxine binding sites; assay: TTR CZE Free Probe Peak Height Restoration (FPPHR) assay, 8-ANS displacement; details: 30 μM 8-ANS with 20 μM TTR
[4] = target: T2, TTR (Homo sapiens, UniProt P02766); assay: Isothermal titration calorimetry (ITC); assay type: binding; details: for Kd: 25 °C, PBS pH 7.8, 3% DMSO
T2 construct: purchased SCIPAC (Sittingbourne, Kent, UK) P171-1
Description: All ITC experiments were conducted on an iTC200 calorimeter (GE Healthcare), and the settings were 25 °C, stir at 1000 RPM, 1–2 μL injection spaced with 100–150 seconds, reference power: 6 μcal/sec. Isotherms were fitted using ORIGIN 7 software (OriginLab, MA, USA). To prepare TTR ITC protein solution (5 mL), purified and freeze-dried human TTR was weighted and dissolved in 310 μL of pure water. The reconstituted protein solution was then desalted by spin column (Bio-Rad, Bio-Gel P6) and the eluted volume was transferred to a 15mL falcon tube. The protein solution was further diluted with 10x Phosphate Buffered Saline (PBS, 500 μL), DMSO (150 μL) and water, (f/c: 4.3 mM Na2HPO4, 137 mM NaCl, 2.7 mM KCl, 1.47 mM KH2PO4, 3% DMSO v/v, TTR 19.35–25 μM, pH 7.8). UV A260/280 was measured to obtain the actual protein concentration using a calculated extinction coefficient of 18450 M^-1 cm^-1. To prepare ligand ITC solution (1 mL), 30 μL of ligand stock in DMSO was diluted with 10x PBS (100 μL) and water (f/c: 4.3 mM Na2HPO4, 137 mM NaCl, 2.7 mM KCl, 1.47 mM KH2PO4, 3% DMSO v/v, Ligand 280–600 μM, pH 7.8).

[5] = target: T3, TTR in undiluted normal human reference plasma (Homo sapiens, UniProt P02766); assay: 125I-T4 displacement assay in neat normal human plasma; assay type: binding; details: for IC50: neat normal human plasma, 4-parameter logistic fit
T3 construct: The TTR in plasma was immunoprecipitated by sheep anti-human prealbumin polyclonal antibody; tissue Precision Biologic Inc., Nova Scotia, Canada
Text: The assay was adapted from one described previously. Briefly, test ligand and ^125I-T4 (Perkin Elmer Inc., Waltham, MA) were mixed with undiluted normal human reference plasma (Precision Biologic Inc., Nova Scotia, Canada). The TTR in plasma was immunoprecipitated by sheep anti-human prealbumin polyclonal antibody (The Binding Site Group Ltd., Birmingham, UK). The immunoprecipitate was washed with buffer and their radioactivity measured with a 2470 WIZARD automatic gamma counter (Perkin Elmer Inc., Waltham, MA). […] Percentage of total radioligand binding for samples of different ligand concentration was then calculated as follows: […]
To calculate IC50 values, percentage of total radioligand binding at different concentration points were entered in SigmaPlot™ 11.0. Titration curves were done in triplicates with a minimum of 5 data points fitted by 4-Parameter Logistic Function.

[6] = target: T4, Human transthyretin (TTR) (Homo sapiens, UniProt P02766); assay: Co-crystallisation of TTR-ligand complex, X-ray hit confirmation; assay type: binding; details: for Confirmed by X-ray: fragment seen in ligand-omitted difference density at >= 2σ in one or both binding sites, full or partial density
T4 construct: purchased SCIPAC (Sittingbourne, Kent, UK) P171-1
Description: Crystals were grown by vapor diffusion using a published crystallisation cocktail (100 mM HEPES pH 7.5, 200 mM CaCl2, 28% v/v PEG400) at 21 °C [29]. The hanging drop contained 1 μL of crystallisation cocktail, 1 μL of diluted ligand and 1 μL of TTR protein solution (85 μM). […] Crystals were harvested and flash cooled in a N2 cryostream or dipped into liquid ethane without cryoprotectant. Data was collected at Diamond Light Source (Oxon, UK) beamline I24, I04 or I04-1 (Pilatus 6M or ADSC Q315) or the European Synchrotron Radiation Facility (ESRF, Grenoble, France) beamline ID29 (Pilatus 6M-F) or in-house (Bruker X8 Diffractometer with APEXII CCD detector). Crystal unit cell was initially indexed by software MOSFLM [30] and LABELIT [31] within the EDNA [32] automatic data processing workflow. Diffraction image integration was performed by XDS [33] and reflection intensities were scaled by SCALA [34] or by PROTEUM2 if collected in-house. Phases were obtained by molecular replacement method using PHASER [35], 1DVQ from the Protein Data Bank (PDB) was used as the search model. Atomic positions of the initial model were refined by REFMAC5 [36]. Model building and ligand fitting was completed using COOT [37]. Model graphics were generated using CCP4MG [38]. Crystallographic statistics of all structures can be found in S4 Table.

[7] = N = number of non-hydrogen atoms

SMILES | % of 8-ANS bound to TTR, deduced from free 8-ANS peak heights ([1]; 30 μM 8-ANS with 20 μM TTR) | Kd ([2]; read-out: Kd1, 8-ANS at TTR thyroxine binding sites) [µM] | Kd ([2]; read-out: Kd2, 8-ANS at TTR thyroxine binding sites) [µM] | Kd ([2]; read-out: previously reported Kd values) [µM] | % of 8-ANS bound to TTR, deduced from free 8-ANS peak areas [3] [%] | Kd ([4]; read-out: ITC Kd1 ± SD (N = 3)) [µM] | Kd ([4]; read-out: ITC Kd2 ± SD (N = 3)) [µM] | Kd1 LE (Ligand Efficiency, ΔG/N) [4, 7] [kcal/mol] | Kd2 LE (Ligand Efficiency, ΔG/N) [4, 7] [kcal/mol] | FPPHR % tested at 10 µM ([1]; compound 10 µM in Running Buffer, 10% minimum for a binder) [% tested at 10 µM] | FPPHR % at 50 μM ([1]; compound 50 μM in Running Buffer, 10% minimum for a binder) [%] | IC50 ([5]; read-out: Mean 125I-T4 IC50 ± SD (N = 3)) [µM] | Confirmed by X-ray [6] | FPPHR % at 300 μM ± SD (N = 3) ([1]; fragment 300 μM in Running Buffer, injected 30 μM 8-ANS / 20 μM TTR, hit cut-off 10%) | 125I-T4 displacement at maximal concentration ([5]; 14.3mM, no plateau reached) | IC50 [5] [µM] | ligand electron density, binding sites occupied in co-crystal structure ([6]; in words)
O=S(=O)(O)c1cccc2cccc(Nc3ccccc3)c12 [Compound 8-ANS, 8-Anilino-1-Naphthalenesulfonic acid] | around 60% | 1.05 | 4.79 | 1 to 5 | ~35 | – | – | – | – | – | – | – | – | – | – | – | –
Cc1n[nH]c(C)c1-c1cccc2cccnc12 [Compound 94320297] | – | – | – | – | – | 0.064 | 0.91 | 0.58 | 0.48 | 33.32 | 59.77 | 18.9 ± 6.14 | Yes 9H7K | – | – | – | –
NS(=O)(=O)c1cc(Cl)cc(Cl)c1 [SFL000006, 3,5-Dichlorobenzenesulphonamide] | – | – | – | – | – | – | – | – | – | – | – | – | Yes 1 Site, Partial, 9H7A | 12.18 ± 6.63 (N = 4) % | ≈ 60% | 8880 ± 3670 | only observed in one site
